# ± gives the expanded uncertainty stated by the source.
# Details: for mass density / vapor or sublimation pressure / viscosity / speed of sound: Liquid; for vapor or sublimation pressure: Ebulliometric method (Recirculating still); for surface tension liquid-gas: Drop volume; for viscosity: Capillary tube (Ostwald / Ubbelohde) method; for speed of sound: Pulse-echo method
smiles,measurement,setting,value
Cc1ccc(C=O)o1 [5-methylfurfural],mass density,"313.15 K, 7500 kPa",1093.64 ± 0.62 kg/m3
same,mass density,"313.15 K, 10000 kPa",1095.27 ± 0.66 kg/m3
same,mass density,"313.15 K, 20000 kPa",1101.5 ± 0.84 kg/m3
same,mass density,"313.15 K, 30000 kPa",1107.37 ± 1 kg/m3
same,mass density,"313.15 K, 40000 kPa",1112.86 ± 1.2 kg/m3
same,mass density,"313.15 K, 50000 kPa",1118.1 ± 1.5 kg/m3
same,mass density,"313.15 K, 60000 kPa",1123.12 ± 1.7 kg/m3
same,vapor or sublimation pressure,313.15 K,0.2 ± 0.1 kPa
same,surface tension liquid-gas,315.65 K,38.44 ± 0.27 mN/m
same,viscosity,"315.65 K, 101.33 kPa",1.402 ± 0.03 mPa·s
same,speed of sound,"315.65 K, 101.33 kPa",1383.3 ± 1.2 m/s
same,mass density,"315.65 K, 101.33 kPa, Vibrating tube method",1085.82 ± 0.31 kg/m3
same,surface tension liquid-gas,318.15 K,38.13 ± 0.27 mN/m
same,mass density,"318.15 K, 100 kPa",1083.33 ± 0.49 kg/m3
same,viscosity,"318.15 K, 101.33 kPa",1.345 ± 0.029 mPa·s
same,speed of sound,"318.15 K, 101.33 kPa",1374.3 ± 1.2 m/s
same,mass density,"318.15 K, 101.33 kPa, Vibrating tube method",1083.33 ± 0.31 kg/m3
same,mass density,"318.15 K, 2500 kPa",1085.42 ± 0.53 kg/m3
same,mass density,"318.15 K, 5000 kPa",1087.05 ± 0.56 kg/m3
same,mass density,"318.15 K, 7500 kPa",1088.71 ± 0.6 kg/m3
same,mass density,"318.15 K, 10000 kPa",1090.41 ± 0.64 kg/m3
same,mass density,"318.15 K, 20000 kPa",1096.72 ± 0.81 kg/m3
same,mass density,"318.15 K, 30000 kPa",1102.74 ± 1 kg/m3
same,mass density,"318.15 K, 40000 kPa",1108.39 ± 1.2 kg/m3
same,mass density,"318.15 K, 50000 kPa",1113.73 ± 1.4 kg/m3
same,mass density,"318.15 K, 60000 kPa",1118.89 ± 1.7 kg/m3
same,vapor or sublimation pressure,318.15 K,0.3 ± 0.1 kPa
same,surface tension liquid-gas,320.65 K,37.78 ± 0.27 mN/m
same,viscosity,"320.65 K, 101.33 kPa",1.292 ± 0.028 mPa·s
same,speed of sound,"320.65 K, 101.33 kPa",1365.3 ± 1.2 m/s
same,mass density,"320.65 K, 101.33 kPa, Vibrating tube method",1080.83 ± 0.31 kg/m3
same,surface tension liquid-gas,323.15 K,37.51 ± 0.27 mN/m
same,mass density,"323.15 K, 100 kPa",1078.33 ± 0.48 kg/m3
same,viscosity,"323.15 K, 101.33 kPa",1.241 ± 0.026 mPa·s
same,speed of sound,"323.15 K, 101.33 kPa",1356.1 ± 1.2 m/s
same,mass density,"323.15 K, 101.33 kPa, Vibrating tube method",1078.33 ± 0.31 kg/m3
same,mass density,"323.15 K, 2500 kPa",1080.39 ± 0.52 kg/m3
same,mass density,"323.15 K, 5000 kPa",1082.17 ± 0.55 kg/m3
same,mass density,"323.15 K, 7500 kPa",1083.95 ± 0.59 kg/m3
same,mass density,"323.15 K, 10000 kPa",1085.56 ± 0.63 kg/m3
same,mass density,"323.15 K, 20000 kPa",1092.07 ± 0.79 kg/m3
same,mass density,"323.15 K, 30000 kPa",1098.22 ± 0.97 kg/m3
same,mass density,"323.15 K, 40000 kPa",1104.01 ± 1.2 kg/m3
same,mass density,"323.15 K, 50000 kPa",1109.47 ± 1.4 kg/m3
same,mass density,"323.15 K, 60000 kPa",1114.68 ± 1.6 kg/m3
same,vapor or sublimation pressure,323.15 K,0.4 ± 0.1 kPa
same,surface tension liquid-gas,325.65 K,37.26 ± 0.27 mN/m
same,viscosity,"325.65 K, 101.33 kPa",1.202 ± 0.026 mPa·s
same,speed of sound,"325.65 K, 101.33 kPa",1347.3 ± 1.2 m/s
same,mass density,"325.65 K, 101.33 kPa, Vibrating tube method",1075.83 ± 0.31 kg/m3
same,surface tension liquid-gas,328.15 K,36.91 ± 0.27 mN/m
same,mass density,"328.15 K, 100 kPa",1073.32 ± 0.48 kg/m3
same,viscosity,"328.15 K, 101.33 kPa",1.151 ± 0.025 mPa·s
same,speed of sound,"328.15 K, 101.33 kPa",1338.4 ± 1.2 m/s
same,mass density,"328.15 K, 101.33 kPa, Vibrating tube method",1073.32 ± 0.3 kg/m3
same,mass density,"328.15 K, 2500 kPa",1075.43 ± 0.51 kg/m3
same,mass density,"328.15 K, 5000 kPa",1077.24 ± 0.54 kg/m3
same,mass density,"328.15 K, 7500 kPa",1079.03 ± 0.57 kg/m3
same,mass density,"328.15 K, 10000 kPa",1080.7 ± 0.61 kg/m3
same,mass density,"328.15 K, 20000 kPa",1087.38 ± 0.77 kg/m3
same,mass density,"328.15 K, 30000 kPa",1093.64 ± 0.94 kg/m3
same,mass density,"328.15 K, 40000 kPa",1099.55 ± 1.1 kg/m3
same,mass density,"328.15 K, 50000 kPa",1105.14 ± 1.3 kg/m3
same,mass density,"328.15 K, 60000 kPa",1110.48 ± 1.6 kg/m3
same,vapor or sublimation pressure,328.15 K,0.54 ± 0.1 kPa
same,surface tension liquid-gas,330.65 K,36.54 ± 0.26 mN/m
same,viscosity,"330.65 K, 101.33 kPa",1.11 ± 0.024 mPa·s
same,speed of sound,"330.65 K, 101.33 kPa",1329.5 ± 1.2 m/s
same,mass density,"330.65 K, 101.33 kPa, Vibrating tube method",1070.81 ± 0.3 kg/m3
same,surface tension liquid-gas,333.15 K,36.21 ± 0.26 mN/m
same,mass density,"333.15 K, 100 kPa",1068.3 ± 0.46 kg/m3
same,viscosity,"333.15 K, 101.33 kPa",1.072 ± 0.023 mPa·s
same,speed of sound,"333.15 K, 101.33 kPa",1320.5 ± 1.2 m/s
same,mass density,"333.15 K, 101.33 kPa, Vibrating tube method",1068.3 ± 0.3 kg/m3
same,mass density,"333.15 K, 2500 kPa",1070.05 ± 0.49 kg/m3
same,mass density,"333.15 K, 5000 kPa",1072.29 ± 0.53 kg/m3
same,mass density,"333.15 K, 7500 kPa",1074.1 ± 0.56 kg/m3
same,mass density,"333.15 K, 10000 kPa",1075.84 ± 0.59 kg/m3
same,mass density,"333.15 K, 20000 kPa",1082.66 ± 0.74 kg/m3
same,mass density,"333.15 K, 30000 kPa",1089.1 ± 0.91 kg/m3
same,mass density,"333.15 K, 40000 kPa",1095.12 ± 1.1 kg/m3
same,mass density,"333.15 K, 50000 kPa",1100.86 ± 1.3 kg/m3
same,mass density,"333.15 K, 60000 kPa",1106.23 ± 1.5 kg/m3
same,vapor or sublimation pressure,333.15 K,0.74 ± 0.1 kPa
same,surface tension liquid-gas,335.65 K,35.92 ± 0.26 mN/m
same,viscosity,"335.65 K, 101.33 kPa",1.039 ± 0.022 mPa·s
same,speed of sound,"335.65 K, 101.33 kPa",1311.6 ± 1.2 m/s
same,mass density,"335.65 K, 101.33 kPa, Vibrating tube method",1065.78 ± 0.3 kg/m3
same,surface tension liquid-gas,338.15 K,35.57 ± 0.26 mN/m
same,mass density,"338.15 K, 100 kPa",1063.25 ± 0.46 kg/m3
same,viscosity,"338.15 K, 101.33 kPa",1.002 ± 0.021 mPa·s
same,speed of sound,"338.15 K, 101.33 kPa",1302.8 ± 1.2 m/s
same,mass density,"338.15 K, 101.33 kPa, Vibrating tube method",1063.25 ± 0.3 kg/m3
same,mass density,"338.15 K, 2500 kPa",1065.43 ± 0.48 kg/m3
same,mass density,"338.15 K, 5000 kPa",1067.33 ± 0.51 kg/m3
same,mass density,"338.15 K, 7500 kPa",1069.06 ± 0.54 kg/m3
same,mass density,"338.15 K, 10000 kPa",1070.99 ± 0.58 kg/m3
same,mass density,"338.15 K, 20000 kPa",1077.96 ± 0.72 kg/m3
same,mass density,"338.15 K, 30000 kPa",1084.52 ± 0.88 kg/m3
same,mass density,"338.15 K, 40000 kPa",1090.69 ± 1.1 kg/m3
same,mass density,"338.15 K, 50000 kPa",1096.51 ± 1.3 kg/m3
same,mass density,"338.15 K, 60000 kPa",1102.02 ± 1.5 kg/m3
same,vapor or sublimation pressure,338.15 K,0.97 ± 0.1 kPa
same,vapor or sublimation pressure,343.15 K,1.3 ± 0.1 kPa
same,vapor or sublimation pressure,348.15 K,1.66 ± 0.1 kPa
same,vapor or sublimation pressure,353.15 K,2.17 ± 0.1 kPa
same,vapor or sublimation pressure,358.15 K,2.76 ± 0.1 kPa
same,vapor or sublimation pressure,363.15 K,3.52 ± 0.1 kPa
same,vapor or sublimation pressure,368.15 K,4.4 ± 0.1 kPa
same,vapor or sublimation pressure,373.15 K,5.52 ± 0.1 kPa
same,vapor or sublimation pressure,378.15 K,6.79 ± 0.1 kPa
same,vapor or sublimation pressure,383.15 K,8.43 ± 0.1 kPa
same,vapor or sublimation pressure,388.15 K,10.2 ± 0.1 kPa
same,vapor or sublimation pressure,393.15 K,12.31 ± 0.1 kPa
same,vapor or sublimation pressure,398.15 K,15 ± 0.1 kPa
same,vapor or sublimation pressure,403.15 K,18 ± 0.1 kPa
same,vapor or sublimation pressure,408.15 K,21.27 ± 0.1 kPa
same,vapor or sublimation pressure,413.15 K,25.33 ± 0.11 kPa
same,vapor or sublimation pressure,418.15 K,30.01 ± 0.11 kPa
same,vapor or sublimation pressure,423.15 K,34.95 ± 0.11 kPa
same,vapor or sublimation pressure,428.15 K,40.57 ± 0.11 kPa
same,vapor or sublimation pressure,433.15 K,47.43 ± 0.12 kPa
same,vapor or sublimation pressure,438.15 K,55.14 ± 0.12 kPa
same,vapor or sublimation pressure,443.15 K,63.39 ± 0.12 kPa
same,vapor or sublimation pressure,448.15 K,72.37 ± 0.13 kPa
same,vapor or sublimation pressure,453.15 K,83.4 ± 0.14 kPa

# — the NIST ThermoML archive (doi:10.1021/je400783h)
